Where a name gives a salt, the structure may show the parent alone. Read-outs that look alike come from different tables or passages of the source.
Legend:
[1] = target: T1, recombinant human CXCR2 (Homo sapiens, UniProt P25025); test: CXCR2 Tango assay; type: cell-based; details: mean pIC50 of multiple test results; stimulated with 80 nM hCXCL1; reporter gene blue/green emission ratio; read-out: pIC50 (CXCR2 Tango assay) (converted)
T1 construct: TEV protease site; Gal4-VP16 transcription factor
T1 sequence (P25025 1-360): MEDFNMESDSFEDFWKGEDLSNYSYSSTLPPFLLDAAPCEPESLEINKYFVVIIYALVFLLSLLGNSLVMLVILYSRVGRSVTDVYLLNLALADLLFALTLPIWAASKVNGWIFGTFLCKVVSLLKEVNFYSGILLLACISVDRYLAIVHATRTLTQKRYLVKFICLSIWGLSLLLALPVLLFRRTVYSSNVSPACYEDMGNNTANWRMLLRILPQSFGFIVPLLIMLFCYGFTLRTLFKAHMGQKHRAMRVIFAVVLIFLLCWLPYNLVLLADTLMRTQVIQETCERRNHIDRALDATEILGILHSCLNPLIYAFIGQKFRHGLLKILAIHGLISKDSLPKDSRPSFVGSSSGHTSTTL
Summary of the method: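 A stable cell line carries human CXCR2 fused to a TEV site and Gal4-VP16, with protease-tagged arrestin. Cells (~10,000/well) were stimulated overnight at 37 °C with 80 nM hCXCL1 and a 10-point compound dilution. CCF4-AM beta-lactamase FRET (460/530 nm ratio) was read, normalized to hCXCL1 and DMSO, and mean pIC50 reported.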

[2] = test system: upregulation of CD11b in GROα stimulated neutrophils in human whole blood; test: Human whole blood assay (CD11b upregulation); type: cell-based; details: Neutrophil, inhibition of CD11b upregulation, GROα 33 nM final, flow cytometry, read-out: pIC50 (human whole blood assay) (converted)
Procedure: The whole blood assay tested the compounds' ability to inhibit the upregulation of CD11b in GROα stimulated neutrophils in human whole blood.
Blood was withdrawn by venipuncture from consented adults and poured into a Sterilin tube containing an anti-coagulant Heparin (10 uL/mL of blood). All the test compounds were dissolved in DMSO to 4 mM and serial diluted across the plate, 1 in 3 to provide 10 point dose response curves. The compounds were then diluted 100 fold in -PBS [Phosphate buffered saline (without Calcium Chloride and Magnesium Chloride)] after which, 1 uL was dispensed in 96 U bottom Costar plates using an FX.
10 uL of blood was transferred to the compound plate using a multi-channel pipette, gently tapped and incubated for 15 minutes, at 37° C. After 15 minutes, the stimulant GROα was diluted to 100 nM in 0.1% BSA (Albumin Bovine Serum)-PBS and 5 uL is dispensed across the whole plate for a final concentration of 33 nM. The plate was gently tapped and incubated further for 15 minutes at 37° C. The plate was placed on ice for 1 minute before addition of 10 uL of an antibody cocktail consisting of CD11b-FITC (40 ug/mL) purchased from BioLegend (address: Cambridge Bioscience, Munro House, Trafalgar Way, Bar Hill, Cambridge, UK) and CD16-PE purchased from BD Pharmingen (address: The Danby Building, Edmung Halley Road, Oxford Science Park, Oxford, UK) (stock concentration 100 tests, 2 mL stock volume is diluted 1 in 5). The plate was placed on ice for 1 hour in the dark. The cells were then fixed using 200 uL/well of 1×FACS (Flow Activated Cell Sorting) Lyse solution (Becton and Dickinson-BD) and on ice for 20 minutes in the dark. The plate was centrifuged at 1600 rpm for 5 minutes and re-suspended with 200 uL of ice cold PBS. This step was repeated twice and on the final step the plate was re-suspended with 50 uL of ice cold -PBS for flow Cytometric analysis.
Samples were run on a Becton and Dickinson (BD)-Acurri C6 Flow Cytometer using a HyperCyt sampling apparatus (IntelliCyt) with a flow rate 2 uL/sec. CD11b upregulation is monitored in neutrophils and identified using a combination of both side scatter and CD16 expression.

| IC50 [1] | IC50 [2] | IC50 ([2]; Homo sapiens) | SMILES |
| --- | --- | --- | --- |
| ≤ 10 nM | 25.1 to 2510 nM |  | O=C(Nc1ccc(Cl)c(S(=O)(=O)[C@H]2C[C@@H](O)C2)c1O)NC1CCC=C1Cl (stereo partly drawn) [Compound 165, 1-(4-chloro-2-hydroxy-3-((cis-3-hydroxycyclobutyl)sulfonyl)phenyl)-3-(2-chlorocyclopent-2-en-1-yl)urea] |
| ≤ 10 nM | 25.1 to 2510 nM |  | CN(C)[C@H]1C[C@H](S(=O)(=O)c2c(Cl)ccc(NC(=O)N[C@@H]3CCC=C3Cl)c2O)C1 [Compound 184, 1-(4-chloro-3-((trans-3-(dimethylamino)cyclobutyl)sulfonyl)-2-hydroxyphenyl)-3-((R)-2-chlorocyclopent-2-en-1-yl)urea, trifluoroacetic acid salt] |
| ≤ 10 nM | 25.1 to 2510 nM |  | O=C(Nc1ccc(Cl)c(S(=O)(=O)[C@H]2C[C@H](N3CCCC3)C2)c1O)N[C@@H]1CCC=C1Cl [Compound 185, 1-(4-chloro-2-hydroxy-3-((trans-3-(pyrrolidin-1-yl)cyclobutyl)sul-fonyl)phenyl)-3-((R)-2-chlorocyclopent-2-en-1-yl)urea, trifluoroacetic acid salt] |
| ≤ 1 nM |  | 25.1 to 2510 nM | CC1=CCC[C@H]1NC(=O)Nc1ccc(Cl)c(S(=O)(=O)[C@H]2C[C@H](N3CCCC3)C2)c1O [Compound 192, 1-(4-chloro-2-hydroxy-3-((trans-3-(pyrrolidin-1-yl)cyclobutyl)sulfonyl)phenyl)-3-((R)-2-methylcyclopent-2-en-1-yl)urea] |
| ≤ 10 nM | 25.1 to 2510 nM |  | CC1=CCC[C@H]1NC(=O)Nc1ccc(Cl)c(S(=O)(=O)N2CCNCC2)c1O [Compound 199, (R)-1-(4-chloro-2-hydroxy-3-(piperazin-1-ylsulfonyl)phenyl)-3-(2-methylcyclopent-2-en-1-yl)urea, trifluoroacetic acid salt] |
| ≤ 1 nM | 25.1 to 2510 nM |  | CCN1CCC(F)(S(=O)(=O)c2c(Cl)ccc(NC(=O)N[C@@H]3CCC=C3Cl)c2O)CC1 [Compound 200, (R)-1-(4-chloro-3-((1-ethyl-4-fluoropiperidin-4-yl)sulfonyl)-2-hydroxphenyl)-3-(2-chlorocyclopent-2-en-1-yl)urea] |

Second part, the molecule before the results:

| SMILES | IC50 [1] | IC50 [2] | IC50 ([2]; Homo sapiens) |
| --- | --- | --- | --- |
| COC[C@H](C)S(=O)(=O)c1c(Cl)ccc(NC(=O)N[C@@H]2CCC=C2C)c1O [Compound 186, 1-(4-chloro-2-hydroxy-3-(((S)-1-methoxypropan-2-yl)sulfonyl)phenyl)-3-((R)-2-methylcyclopent-2-en-1-yl)urea] | ≤ 1 nM | 25.1 to 2510 nM |  |
| CC1=CCC[C@H]1NC(=O)Nc1ccc(C#N)c(S(=O)(=O)C(C)(C)C)c1O [Compound 191, (R)-1-(3-(tert-butylsulfonyl)-4-cyano-2-hydroxyphenyl)-3-(2-methylcyclopent-2-en-1-yl)urea] | ≤ 1 nM | 25.1 to 2510 nM |  |
| CC1=CCC[C@H]1NC(=O)Nc1ccc(Cl)c(S(=O)(=O)[C@H]2C[C@H](N(C)C)C2)c1O [Compound 193, 1-(4-chloro-3-((trans-3-(dimethylamino)cyclobutyl)sulfonyl)-2-hydroxyphenyl)-3-((R)-2-methylcyclopent-2-en-1-yl)urea] | ≤ 1 nM | 25.1 to 2510 nM |  |
| CC1=CCC[C@H]1NC(=O)Nc1ccc(Cl)c(S(=O)(=O)C(C)(F)F)c1O [Compound 194, (R)-1-(4-chloro-3-((1,1-difluoroethyl)sulfonyl)-2-hydroxyphenyl)-3-(2-methylcyclopent-2-en-1-yl)urea] | ≤ 1 nM | 25.1 to 2510 nM |  |

Reference: US10106515B2, “1-(cyclopent-2-en-1-yl)-3-(2-hydroxy-3-(arylsulfonyl)phenyl)urea derivatives as CXCR2 inhibitors” (GLAXOSMITHKLINE INTELLECTUAL PROPERTY DEVELOPMENT LIMITED, priority 2014, dated 2018)
